# Measurements taken from the supplement of paper PMC12532568.
# Structures can show the parent of a compound that is named as a salt.
# Test system: Danio rerio larvae Tg(actc1b:ZsGreen-LC3), 3 dpf
# Assay: LC3 puncta relative area vs vehicle (mean) (log2 fold change); higher = more autophagy
# Conditions: treatment time 16 h
# Description: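 Transgenic ZsGreen-LC3 zebrafish larvae (2 dpf) were treated for 16 h with natural bioactives at 10, 50, 100 or 250 µM. Skeletal-muscle LC3 puncta area was measured by high-content imaging with or without 4 h of 100 mM NH4Cl, normalised to vehicle, and reported as the mean log2 fold change over 4–21 larvae.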
Compound,"LC3 puncta (log2) (NH4Cl: + NH4Cl, 10 µM)","LC3 puncta (log2) (NH4Cl: + NH4Cl, 50 µM)","LC3 puncta (log2) (NH4Cl: + NH4Cl, 100 µM)","LC3 puncta (log2) (NH4Cl: + NH4Cl, 250 µM)","LC3 puncta (log2) (NH4Cl: - NH4Cl, 10 µM)","LC3 puncta (log2) (NH4Cl: - NH4Cl, 50 µM)","LC3 puncta (log2) (NH4Cl: - NH4Cl, 100 µM)","LC3 puncta (log2) (NH4Cl: - NH4Cl, 250 µM)"
CC(O)CC(=O)O (racemic) [DL-ß-Hydroxybutyric acid sodium salt],-0.181,0.231,0.389,0.588,0.151,-0.288,0.0785,0.0274
CC(C)CC(O)C(=O)O (stereo not given) [2-Hydroxyisocaproic acid],0.569,1.04,1.46,1.21,-0.489,0.415,0.346,0.416
O=C1C[C@H](O)[C@@H](CO)O1 [2-deoxyribonolactone],0.749,0.4,0.746,0.616,0.195,-0.131,0.251,-0.0832
"O=C(O)CCSCCC(=O)O [3,3'-thiodipropionic acid]",0.309,0.728,-0.445,0.629,0.0135,0.045,-0.0204,-0.062
CC(O)CC(=O)O (stereo not given) [3-Hydroxybutyrate],0.306,0.707,0.353,0.884,0.219,0.327,0.00999,0.0766
"C/C=C\C=C\C(=O)O [(2E,4Z)-2,4-hexadienoic acid]",0.772,1.14,1.21,0.824,0.44,-0.191,1.17,-0.266
C[C@@H](O)C(=O)O [(2R)-2-hydroxypropanoic acid],0.532,0.237,0.304,0.589,0.00532,-0.27,0.144,-0.203
O=C(O)C[C@H](O)C(=O)O [(2S)-2-hydroxybutanedioic acid],0.631,0.508,0.375,,-0.158,0.038,0.417,0.262
O=C(O[C@@H]1Cc2c(O)cc(O)cc2O[C@@H]1c1ccc(O)c(O)c1)c1cc(O)c(O)c(O)c1 [(-)-Epicatechin gallate],0.221,0.493,0.661,,-0.0294,0.253,0.0524,
Oc1cc(O)c2c(c1)O[C@H](c1ccc(O)c(O)c1)[C@H](O)C2 [(-)-Epicatechin],0.954,0.317,0.232,0.0319,-0.000662,-0.156,-0.539,-0.492
"C[C@@H](O)CCO [(R)-1,3-Butylene Glycol]",0.22,-0.0174,0.179,0.0875,0.0281,-0.261,-0.294,-0.184
C[C@@H](O)CC(=O)O [(R)-3-Hydroxybutyric acid],0.877,0.689,0.929,1.01,0.111,-0.78,0.265,0.324
"C[C@H](O)CCO [(S)-1,3-Butylene Glycol]",0.505,-0.0626,0.509,,-0.143,-0.512,-0.016,0.014
O=C(O)c1ccccc1 [Benzoic acid],-0.0668,0.917,1.5,,0.129,0.383,1.14,
CC(=O)C(C)=O [Biacetyl],0.347,0.581,0.946,0.981,0.0128,0.343,0.699,0.218
O=C(O)C=CC(=O)O [Butenedioic acid],0.693,1.1,1.29,1.14,0.588,0.758,0.837,0.447
CCCC(=O)[O-].[Na+] [Butyric acid sodium salt],0.256,0.65,0.615,0.513,0.036,0.362,0.26,-0.0615
Cc1ccc(C(C)C)cc1O [Carvacrol],0.565,1.07,1.84,1.67,0.493,0.93,1.08,1.92
O=C(O)CC(O)(CC(=O)O)C(=O)O [Citric acid],0.486,0.837,-0.0949,-0.815,-0.0291,-0.364,0.353,0.401
C/C1=C2/[N-]C([C@H](CC(N)=O)[C@@]2(C)CCC(=O)NCC(C)OP(=O)([O-])OC2C(O)[C@@H](n3cnc4cc(C)c(C)cc43)O[C@@H]2CO)[C@]2(C)N=C(/C(C)=C3N=C(/C=C4N=C1[C@@H](CCC(N)=O)C\4(C)C)[C@@H](CCC(N)=O)[C@]\3(C)CC(N)=O)[C@@H](CCC(N)=O)[C@]2(C)CC(N)=O.[CH2-]C1O[C@H](n2cnc3c(N)ncnc32)[C@@H](O)[C@H]1O.[Co+3] (stereo not given in full) [Coenzyme B12],0.47,0.446,0.394,0.833,0.178,-0.299,0.292,0.281
N[C@H]1C(O)O[C@H](CO)[C@@H](O)[C@@H]1O (stereo partly drawn) [D-glucosamine],0.082,0.412,0.454,0.285,0.0603,0.0831,0.218,0.352
O=c1oc2c(O)c(O)cc3c(=O)oc4c(O)c(O)cc1c4c23 [Ellagic acid],0.705,0.347,0.0739,0.0325,0.154,-0.476,-0.223,0.00958
